Calls of active or inactive are those of the source. The calls are words filed in the database; no cut-off is given here.
Columns and labels:
[1] = biological target: T1, Serine/threonine-protein kinase 4 (Homo sapiens) (UniProt Q13043); assay: Binding affinity to recombinant MST1 (unknown origin) assessed as change in melting temperature by DSF analysis
T1 sequence (whole entry): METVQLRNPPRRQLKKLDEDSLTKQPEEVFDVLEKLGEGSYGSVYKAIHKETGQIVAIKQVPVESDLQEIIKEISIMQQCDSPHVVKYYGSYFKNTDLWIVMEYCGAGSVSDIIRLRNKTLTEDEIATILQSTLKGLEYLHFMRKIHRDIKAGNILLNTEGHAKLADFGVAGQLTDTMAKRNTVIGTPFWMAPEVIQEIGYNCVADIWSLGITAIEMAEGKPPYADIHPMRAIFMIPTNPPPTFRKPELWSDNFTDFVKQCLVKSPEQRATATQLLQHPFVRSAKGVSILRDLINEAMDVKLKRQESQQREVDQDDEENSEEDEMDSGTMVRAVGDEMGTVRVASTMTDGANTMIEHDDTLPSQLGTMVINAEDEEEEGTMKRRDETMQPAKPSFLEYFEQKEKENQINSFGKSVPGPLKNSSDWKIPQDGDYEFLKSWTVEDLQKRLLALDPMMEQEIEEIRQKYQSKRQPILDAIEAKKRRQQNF

[2] = biological target: Serine/threonine-protein kinase PAK 1 (Homo sapiens) (UniProt Q13153); assay: Binding affinity to recombinant PAK1 (unknown origin) assessed as change in melting temperature by DSF analysis
Serine/threonine-protein kinase PAK 1 (Homo sapiens), sequence (Q13153 whole entry): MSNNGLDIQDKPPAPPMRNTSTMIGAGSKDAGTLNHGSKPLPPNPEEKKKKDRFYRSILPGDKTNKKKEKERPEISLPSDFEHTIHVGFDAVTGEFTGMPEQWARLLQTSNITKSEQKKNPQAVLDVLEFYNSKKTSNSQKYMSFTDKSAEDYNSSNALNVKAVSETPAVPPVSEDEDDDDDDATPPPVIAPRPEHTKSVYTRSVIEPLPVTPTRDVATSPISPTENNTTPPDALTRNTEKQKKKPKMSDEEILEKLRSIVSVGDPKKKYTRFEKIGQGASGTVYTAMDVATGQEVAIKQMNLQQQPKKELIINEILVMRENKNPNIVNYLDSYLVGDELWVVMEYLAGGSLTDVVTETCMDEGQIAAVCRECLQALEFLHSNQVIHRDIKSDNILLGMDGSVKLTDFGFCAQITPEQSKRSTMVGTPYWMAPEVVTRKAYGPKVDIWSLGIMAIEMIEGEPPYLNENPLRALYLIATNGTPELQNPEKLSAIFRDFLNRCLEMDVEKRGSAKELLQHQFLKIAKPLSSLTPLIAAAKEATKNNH

[3] = biological target: T2, Serine/threonine-protein kinase 3 (Homo sapiens) (UniProt Q13188); assay: Binding affinity to recombinant MST2 (unknown origin) assessed as change in melting temperature by DSF analysis
T2 sequence (whole entry): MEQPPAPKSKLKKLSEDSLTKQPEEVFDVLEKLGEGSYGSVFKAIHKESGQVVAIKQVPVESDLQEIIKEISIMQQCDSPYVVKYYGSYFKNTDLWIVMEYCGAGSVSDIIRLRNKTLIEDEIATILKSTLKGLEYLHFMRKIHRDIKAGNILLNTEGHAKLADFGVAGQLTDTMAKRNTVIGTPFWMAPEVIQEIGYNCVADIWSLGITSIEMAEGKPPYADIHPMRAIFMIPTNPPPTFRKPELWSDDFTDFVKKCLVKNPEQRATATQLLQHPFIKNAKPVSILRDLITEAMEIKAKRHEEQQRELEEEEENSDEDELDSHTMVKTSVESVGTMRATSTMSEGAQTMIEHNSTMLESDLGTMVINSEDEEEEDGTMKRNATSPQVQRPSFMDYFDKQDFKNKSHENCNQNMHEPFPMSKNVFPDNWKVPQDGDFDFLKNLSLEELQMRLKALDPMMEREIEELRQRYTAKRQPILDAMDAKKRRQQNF

[4] = biological target: Serine/threonine-protein kinase SIK2 (Homo sapiens, UniProt Q9H0K1); assay: Inhibition of SIK2 (unknown origin) expressed in HEK293T cells using NanoGlo as substrate incubated for 20 hrs by NanoBRET assay; assay type: cell-based
Serine/threonine-protein kinase SIK2, sequence (Q9H0K1 whole entry): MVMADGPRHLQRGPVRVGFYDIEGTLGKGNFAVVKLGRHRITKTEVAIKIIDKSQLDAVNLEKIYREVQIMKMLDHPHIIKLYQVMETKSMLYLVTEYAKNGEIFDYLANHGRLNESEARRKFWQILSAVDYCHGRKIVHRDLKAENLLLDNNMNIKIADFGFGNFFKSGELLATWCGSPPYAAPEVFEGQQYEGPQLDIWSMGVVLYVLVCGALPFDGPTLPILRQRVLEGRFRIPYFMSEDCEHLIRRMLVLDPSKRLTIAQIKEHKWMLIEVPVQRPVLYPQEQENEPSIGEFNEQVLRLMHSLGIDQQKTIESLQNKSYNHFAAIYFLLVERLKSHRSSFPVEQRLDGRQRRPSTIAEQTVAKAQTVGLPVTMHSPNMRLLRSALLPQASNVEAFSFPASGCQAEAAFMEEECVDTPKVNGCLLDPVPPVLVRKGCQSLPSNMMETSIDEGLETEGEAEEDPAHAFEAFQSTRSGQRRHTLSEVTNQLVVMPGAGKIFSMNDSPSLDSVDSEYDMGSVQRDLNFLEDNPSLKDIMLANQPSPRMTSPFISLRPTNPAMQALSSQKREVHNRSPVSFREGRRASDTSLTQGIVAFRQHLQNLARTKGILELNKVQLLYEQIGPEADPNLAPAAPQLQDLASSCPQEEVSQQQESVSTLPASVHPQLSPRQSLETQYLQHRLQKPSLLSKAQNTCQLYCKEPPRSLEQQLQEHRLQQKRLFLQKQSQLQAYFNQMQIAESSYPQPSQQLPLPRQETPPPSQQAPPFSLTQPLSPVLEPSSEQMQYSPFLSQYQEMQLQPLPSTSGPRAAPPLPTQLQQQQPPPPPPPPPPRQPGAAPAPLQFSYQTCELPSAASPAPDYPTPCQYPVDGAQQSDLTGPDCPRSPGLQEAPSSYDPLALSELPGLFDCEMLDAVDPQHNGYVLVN

[5] = biological target: T3, Serine/threonine-protein kinase 24 (Homo sapiens, UniProt Q9Y6E0); assay: Binding affinity to recombinant MST3 (unknown origin) assessed as change in melting temperature by DSF analysis
Target sequence in this assay (Q9Y6E0 whole entry, looked up): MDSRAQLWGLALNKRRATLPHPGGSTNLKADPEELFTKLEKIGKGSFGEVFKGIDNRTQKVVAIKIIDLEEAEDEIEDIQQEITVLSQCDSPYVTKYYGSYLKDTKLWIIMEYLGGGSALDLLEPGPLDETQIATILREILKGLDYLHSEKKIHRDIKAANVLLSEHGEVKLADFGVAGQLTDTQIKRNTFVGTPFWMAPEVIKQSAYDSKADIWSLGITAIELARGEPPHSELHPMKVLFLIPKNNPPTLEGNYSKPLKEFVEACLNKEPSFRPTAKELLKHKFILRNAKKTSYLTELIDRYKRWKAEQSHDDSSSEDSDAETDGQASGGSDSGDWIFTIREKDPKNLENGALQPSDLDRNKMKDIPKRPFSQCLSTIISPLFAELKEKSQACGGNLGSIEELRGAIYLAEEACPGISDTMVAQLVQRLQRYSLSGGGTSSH

[6] = biological target: T4, Serine/threonine-protein kinase 4 (Homo sapiens, UniProt Q13043); assay: Inhibition of MST1 (unknown origin) expressed in HEK293T cells using NanoGlo as substrate incubated for 20 hrs by NanoBRET assay; assay type: cell-based
T4 sequence (Q13043 whole entry): T1 sequence (whole entry)

[7] = biological target: T5, Serine/threonine-protein kinase 26 (Homo sapiens, UniProt Q9P289); assay: Inhibition of MST4 (unknown origin) expressed in HEK293T cells using NanoGlo as substrate incubated for 20 hrs by NanoBRET assay; assay type: cell-based
Target sequence in this assay (Q9P289 whole entry): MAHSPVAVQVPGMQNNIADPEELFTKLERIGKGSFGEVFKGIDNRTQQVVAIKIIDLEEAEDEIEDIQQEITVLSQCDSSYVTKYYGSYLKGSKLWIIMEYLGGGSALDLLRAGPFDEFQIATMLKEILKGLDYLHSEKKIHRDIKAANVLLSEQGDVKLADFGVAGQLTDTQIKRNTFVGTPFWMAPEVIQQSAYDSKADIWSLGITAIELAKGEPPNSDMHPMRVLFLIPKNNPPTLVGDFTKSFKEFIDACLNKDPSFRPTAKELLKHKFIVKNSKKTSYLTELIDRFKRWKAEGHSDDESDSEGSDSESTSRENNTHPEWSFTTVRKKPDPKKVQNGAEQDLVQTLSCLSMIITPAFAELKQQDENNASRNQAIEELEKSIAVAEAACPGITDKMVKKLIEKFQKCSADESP

[8] = biological target: T5, Serine/threonine-protein kinase 26; assay: Binding affinity to recombinant MST4 (unknown origin) assessed as change in melting temperature by DSF analysis
Target sequence in this assay (Q9P289 2-416 limits assumed): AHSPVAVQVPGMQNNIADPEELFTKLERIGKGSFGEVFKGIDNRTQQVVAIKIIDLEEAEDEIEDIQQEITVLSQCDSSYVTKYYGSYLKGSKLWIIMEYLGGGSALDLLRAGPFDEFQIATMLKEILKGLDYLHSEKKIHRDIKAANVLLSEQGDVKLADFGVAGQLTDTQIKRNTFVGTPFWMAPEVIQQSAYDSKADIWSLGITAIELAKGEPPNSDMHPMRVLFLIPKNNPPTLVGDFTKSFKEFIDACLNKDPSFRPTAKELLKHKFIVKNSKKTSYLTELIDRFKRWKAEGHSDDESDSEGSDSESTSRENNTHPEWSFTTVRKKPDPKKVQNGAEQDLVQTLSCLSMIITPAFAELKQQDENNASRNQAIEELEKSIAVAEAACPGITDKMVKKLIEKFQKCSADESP

[9] = biological target: T3, Serine/threonine-protein kinase 24; assay: Inhibition of MST3 (unknown origin) expressed in lysed HEK293T cells using NanoGlo as substrate incubated for 20 hrs by NanoBRET assay; assay type: cell-based
Target sequence in this assay (Q9Y6E0 whole entry): as the sequence (Q9Y6E0 whole entry, looked up) above

[10] = biological target: T6, Serine/threonine-protein kinase 3 (Homo sapiens, UniProt Q13188); assay: Inhibition of MST2 (unknown origin) expressed in HEK293T cells using NanoGlo as substrate incubated for 20 hrs by NanoBRET assay; assay type: cell-based
T6 sequence (Q13188 whole entry): T2 sequence (whole entry)

[11] = biological target: T3, Serine/threonine-protein kinase 24; assay: Inhibition of MST3 (unknown origin) expressed in intact HEK293T cells using NanoGlo as substrate incubated for 20 hrs by NanoBRET assay; assay type: cell-based
Target sequence in this assay (Q9Y6E0 whole entry): as the sequence (Q9Y6E0 whole entry, looked up) above

[12] = test system: HCT-116; assay: Induction of apoptosis in human HCT-116 cells assessed as effect on cell count at 1 uM incubated for 72 hrs by Hoechst33342 staining based analysis; assay type: functional
[13] = test system: HCT-116; assay: Antiproliferative activity against human HCT-116 cells assessed as reduction in cell viability at 10 uM incubated for 6 to 72 hrs by Hoechst33342 staining based analysis; assay type: functional; details: time 6-72 hrs
[14] = test system: HCT-116; assay: Induction of cell cycle arrest in human HCT-116 cells assessed as accumulation of cells at G1 phase at 10 uM incubated for 72 hrs by FUCCI based analysis; assay type: functional
[15] = test system: HCT-116; assay: Antiproliferative activity against human HCT-116 cells assessed as reduction in cell viability at 10 uM incubated for 48 hrs by Hoechst33342 staining based analysis; assay type: functional
[16] = test system: HCT-116; assay: Induction of apoptosis in human HCT-116 cells assessed as increase in fluorescence intensity at 10 uM incubated for 24 hrs by Hoechst33342 staining based analysis; assay type: functional, cell-based
[17] = test system: HCT-116; assay: Induction of apoptosis in human HCT-116 cells assessed as effect on cell count at 10 uM incubated for 72 hrs by Hoechst33342 staining based analysis; assay type: functional
[18] = biological target: T3, Serine/threonine-protein kinase 24; assay: Inhibition of MST3 (unknown origin) expressed in HEK293T cells using NanoGlo as substrate incubated for 20 hrs by NanoBRET assay; assay type: cell-based
Target sequence in this assay (Q9Y6E0 whole entry): as the sequence (Q9Y6E0 whole entry, looked up) above

[19] = biological target: T3, Serine/threonine-protein kinase 24; assay: Inhibition of MST3 (unknown origin)
Target sequence in this assay (Q9Y6E0 whole entry): as the sequence (Q9Y6E0 whole entry, looked up) above

[20] = biological target: T5, Serine/threonine-protein kinase 26; assay: Inhibition of MST4 (unknown origin)
Target sequence in this assay (Q9P289 whole entry): as the sequence (Q9P289 whole entry) above

[21] = test system: HCT-116; assay: Induction of cell cycle arrest in human HCT-116 cells assessed as accumulation of cells at G2/M phase incubated for 72 hrs by FUCCI based analysis; assay type: functional; details: dose 10.0 µM
[22] = test system: HCT-116; assay: Induction of apoptosis in human HCT-116 cells assessed as increase in cell count at 10 uM incubated for 48 hrs by Hoechst33342 staining based analysis; assay type: functional

ΔTm [1] | ΔTm [2] | ΔTm [3] | EC50 [4] | ΔTm [5] | EC50 [6] | EC50 [7] | ΔTm [8] | EC50 [9] | EC50 [10] | Compound | further results
3.1 °C | 5 °C | 15.8 °C | 5900 nM | 13 °C | > 50000 nM | 2800 nM | 8.9 °C | 33 nM | > 50000 nM | Cc1cccc(-c2ccc(-c3cc4cnc(NCCCN5CCNCC5)nc4n(CCCCN)c3=O)c(Cl)c2)n1 | 
1.1 °C | 3.6 °C | 2.2 °C | 1300 nM | 10.6 °C | 15100 nM | 1100 nM | 7.5 °C | 56 nM | 16900 nM | Cc1cccc(-c2ccc(-c3cc4cnc(NCCCN5CCCC5=O)nc4n(CCCCN)c3=O)c(Cl)c2)n1 | EC50 [11]: 178 nM; Activity [12]: Active; Activity [13]: inactive; Activity [14]: Active; Activity [15]: 30%
3.6 °C | 4.1 °C | 5.9 °C | 512 nM | 11.6 °C | 5300 nM | 115 nM | 10.6 °C | 27 nM | 10200 nM | Cc1cccc(-c2ccc(-c3cc4cnc(NCCCN5CCOCC5)nc4n(CCCCN)c3=O)c(Cl)c2)n1 | EC50 [11]: 55 nM; Activity [16]: Active; Activity [13]: inactive; Activity [17]: Active
8 °C | 9.2 °C | 13.7 °C | 62 nM | 17.1 °C | 419 nM | 44 nM | 15 °C | 23 nM | 369 nM | Cc1cccc(-c2ccc(-c3cc4cnc(Nc5ccc(O)cc5)nc4n(CCCCN)c3=O)c(Cl)c2)n1 | 
3.8 °C | 4.5 °C | 5.4 °C | 543 nM | 11 °C | 3300 nM | 793 nM | 8.3 °C | 163 nM | 3100 nM | COc1ccc(O)c(Nc2ncc3cc(-c4ccc(-c5cccc(C)n5)cc4Cl)c(=O)n(CCCCN)c3n2)c1 | 
 |  |  |  |  |  |  |  |  |  | CNC(=O)c1nn(C)c2c1C(C)(C)Cc1cnc(Nc3ccc(N4CCN(C)CC4)cc3)nc1-2 | Activity [14]: Active
 |  |  |  |  |  |  |  |  |  | CC(=O)NC1CCN(c2ncnc3[nH]cc(-c4cccc(Cl)c4)c23)CC1 | Activity [13]: inactive
5.6 °C | 6.5 °C | 7.9 °C | 99 nM | 11.7 °C | 4100 nM | 457 nM | 11.4 °C | 42 nM | 2600 nM | CNc1ncc2cc(-c3ccc(-c4cccc(C)n4)cc3Cl)c(=O)n(CCCCN)c2n1 | EC50 [11]: 221 nM; Activity [16]: Active; EC50 [18]: 42 nM; Activity [13]: inactive; Activity [17]: Active
4.9 °C | 6.8 °C | 7.2 °C | 516 nM | 12.2 °C | 3400 nM | 681 nM | 9.7 °C | 57 nM | 3600 nM | Cc1cccc(-c2ccc(-c3cc4cnc(NCCCc5ccc(N)cc5)nc4n(CCCCN)c3=O)c(Cl)c2)n1 | 
 |  |  |  |  |  |  |  |  |  | CCS(=O)(=O)Nc1ccc2c(c1)/C(=C(/Nc1ccc(CN3CCCCC3)cc1)c1ccccc1)C(=O)N2 [HESPERADIN] | IC50 [19]: 10 nM; IC50 [20]: 6 nM
8.1 °C | 9.1 °C | 13.2 °C | 37 nM | 17.5 °C | 530 nM | 60 nM | 15.9 °C | 34 nM | 537 nM | Cc1cccc(-c2ccc(-c3cc4cnc(Nc5ccc(C)c(O)c5)nc4n(CCCCN)c3=O)c(Cl)c2)n1 | 
4 °C | 8.8 °C | 7.4 °C | 153 nM | 13.5 °C | > 50000 nM | 38300 nM | 6.7 °C | 278 nM | 16900 nM | COc1cc(N2CCN(C)CC2)ccc1Nc1ncc2cc(-c3ccc(-c4cccc(C)n4)cc3Cl)c(=O)n(CCCCN)c2n1 | 
4.6 °C | 5 °C | 7.5 °C | 85 nM | 11 °C | 2100 nM | 1200 nM | 9.2 °C | 115 nM | 3100 nM | COc1cc(N2CCOCC2)ccc1Nc1ncc2cc(-c3ccc(-c4cccc(C)n4)cc3Cl)c(=O)n(CCCCN)c2n1 | 
8.6 °C | 9.3 °C | 16 °C | 51 nM | 16.9 °C | 314 nM | 44 nM | 14.8 °C | 10 nM | 184 nM | Cc1cccc(-c2ccc(-c3cc4cnc(Nc5ccc(F)c(CO)c5)nc4n(CCCCN)c3=O)c(Cl)c2)n1 | 
 |  |  |  |  |  |  |  |  |  | CCOc1cc2ncc(C#N)c(Nc3ccc(OCc4ccccn4)c(Cl)c3)c2cc1NC(=O)/C=C/CN(C)C [NERATINIB] | IC50 [19]: 7 nM; IC50 [20]: 7 nM
1.6 °C | 3.2 °C | 1.3 °C | 3200 nM | 3.7 °C | 12800 nM | 4600 nM | 1.6 °C |  | 7600 nM | CNc1ncc2cc(-c3ccc(-c4cccc(C)n4)cc3Cl)c(=O)n(C)c2n1 | EC50 [18]: 775 nM
 |  |  |  |  |  |  |  |  |  | N#Cc1cccc(-c2c[nH]c3ncnc(N4CCOCC4)c23)c1 | Activity [21]: Dose-Dependent Effect; Activity [13]: inactive; Activity [22]: Active
5.8 °C | 5.9 °C | 10.2 °C | 5500 nM | 13 °C | 5700 nM | 2200 nM | 9.5 °C | 367 nM | 5500 nM | Cc1cccc(-c2ccc(-c3cc4cnc(Nc5cc(C(F)(F)F)ccc5C)nc4n(CCCCN)c3=O)c(Cl)c2)n1 | 
8.7 °C | 9.1 °C | 13.7 °C | 49 nM | 16.7 °C | 251 nM | 48 nM | 15.3 °C | 20 nM | 249 nM | Cc1cccc(-c2ccc(-c3cc4cnc(Nc5ccc(CCCO)cc5)nc4n(CCCCN)c3=O)c(Cl)c2)n1 | EC50 [11]: 20 nM; Activity [16]: Active
3.9 °C | 4.1 °C | 5 °C | 2500 nM | 6.7 °C | 31400 nM | 13000 nM | 4.4 °C |  | 28500 nM | CNc1ncc2cc(-c3ccc(-c4cccc(C)n4)cc3Cl)c(=O)n(CCOC)c2n1 | EC50 [18]: 420 nM

From ChEMBL document CHEMBL5528076, “Development of Selective Pyrido[2,3-d]pyrimidin-7(8H)-one-Based Mammalian STE20-Like (MST3/4) Kinase Inhibitors” (J Med Chem, 2024)
